Results as given in patent US10548898B2, “Quinazoline compounds” (Gilead Sciences, Inc., priority 2014, dated 2020).
Where two headings read alike, the source gives them in different places.

Assays:
Type in all cases: cell-based
[1] = test system: HIV-1 recombinant strain encoding reverse transcriptase mutation Y181C; assay: Resistance profile against HIV-1 RT mutants in MT-2 cells, Y181C; settings: ratio of mean EC50 mutant/WT virus
Experimental: (§1) Compounds were tested for antiviral activity against a panel of NNRTI resistant viruses. A panel of 8 clonal site-directed mutant viruses representing the major resistance development pathways against rilpivirine (“RPV”), efavirenz (“EFV”), and nevirapine (“NVP”), containing both single and double mutations within HIV-1 reverse transcriptase was employed. Further details and background can be found in Janssen et al. J. Med. Chem, 2005, 48, 1901-1909; Das et al., Proc. Nat. Acad. Sci., 2008, vol., 105, no. 5, 1466-1471; and Kuroda et al., Nature Chemistry, 2013, DOI: 10.1038/NCHEM. 1559. […] HIV-1 recombinant strains encoding reverse transcriptase mutations K103N, Y181C, Y188L, G190A, K103N/Y181C, L1001/Y181C, E138K or E138KIM 184V were constructed by site-directed mutagenesis. Wild-type and mutant viruses were prepared by transfecting infectious proviral HXB2-based cDNA clones into MT-2 cells and harvesting the cell supernatants. MT-2 cells were infected with wild-type and mutant HIV-1 strains at a multiplicity of infection (MOI) of 0.005 by gentle mixing for 3 hours at 37° C. and then added at a density of 16,667 cells per well in 50 μL complete RPMI cell culture media (containing 10% fetal bovine serum (FBS) and 10% penicillin-streptomycin) to 96-well plates containing 50 μL of a 3-fold serial dilution of test compounds in RPMI medium. After 5 days of incubation at 37° C. in a humidified incubator in the presence of 5% CO2. 100 μL of Cell Titer-Glo™ Reagent (Promega Biosciences, Inc., Madison, Wis.) was added to each well and the relative light units (RLU) measured on an Envision plate reader. […] The EC50 value was defined as the compound concentration inducing a 50% decrease in virus replication. Data analysis for the antiviral activity observed in MT-2 cells was performed using XL-Fit™ software (IDBS, Guildford, Surrey, UK) to calculate EC50 from an 8-point dose-response curve using the following equation:
(§2) [formula] where y=virus inhibition, x=drug concentration, M=maximum inhibition, H=minimum inhibition and n=Hill coefficient, EC50 values (mean±standard deviation) were calculated from at least three independent experiments performed in triplicate. The level of resistance was calculated as a ratio of the mean EC50 for each mutant/WT virus. Results are disclosed in FIG. 1 and in Tables 3 and 4 below.

[2] = test system: HIV-1 recombinant strain encoding reverse transcriptase mutation K103N/Y181C; assay: Resistance profile against HIV-1 RT mutants in MT-2 cells, K103N/Y181C; settings: ratio of mean EC50 mutant/WT virus
Experimental: as §1, §2

HIV-1 HBX2 (wild type) = assay: High throughput cytopathic effect assay in MT-4 cells, wild type HIV-1
Outline: (§3)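 MT-4 cells infected 1 h at 37 °C at MOI 0.0005, then plated onto ten-point half-log compound dilutions and incubated 5 days. Cell viability read by CellTiter-Glo luminescence, normalized to AZT and DMSO controls as % CPE protection; EC50 from four-parameter fit.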

[3] = test system: HIV-1 reverse transcriptase mutant K103N; assay: High throughput cytopathic effect assay in MT-4 cells, K103N mutant; settings: for EC50: Human immunodeficiency virus 1, MT4, 120 h, read-out: MT4 EC50 (nM) against K103N; for FC against mutant K103N: fold change of MT4 EC50 versus w.t. assay 2
Outline: as §3

[4] = test system: HIV-1 recombinant strain encoding reverse transcriptase mutation G190A; assay: Resistance profile against HIV-1 RT mutants in MT-2 cells, G190A; settings: ratio of mean EC50 mutant/WT virus
Experimental: as §1, §2

[5] = test system: HIV-1 recombinant strain encoding reverse transcriptase mutation Y188L; assay: Resistance profile against HIV-1 RT mutants in MT-2 cells, Y188L; settings: ratio of mean EC50 mutant/WT virus
Experimental: as §1, §2

[6] = test system: HIV-1 recombinant strain encoding reverse transcriptase mutation L100I/Y181C; assay: Resistance profile against HIV-1 RT mutants in MT-2 cells, L100I/Y181C; settings: ratio of mean EC50 mutant/WT virus
Experimental: as §1, §2

[7] = test system: HIV-1 recombinant strain encoding reverse transcriptase mutation K103N; assay: Resistance profile against HIV-1 RT mutants in MT-2 cells, K103N; settings: ratio of mean EC50 mutant/WT virus
Experimental: as §1, §2

[8] = test system: HIV-1 reverse transcriptase mutant Y181C; assay: High throughput cytopathic effect assay in MT-4 cells, Y181C mutant; settings: for EC50: Human immunodeficiency virus 1, MT4, 120 h, read-out: MT4 EC50 (nM) against Y181C; for FC against mutant Y181C: fold change of MT4 EC50 versus w.t. assay 2
Outline: as §3

[9] = test system: HIV-1 recombinant strain encoding reverse transcriptase mutation E138K/M184V; assay: Resistance profile against HIV-1 RT mutants in MT-2 cells, E138K/M184V; settings: ratio of mean EC50 mutant/WT virus
Experimental: Compounds were tested for antiviral activity against a panel of NNRTI resistant viruses. A panel of 8 clonal site-directed mutant viruses representing the major resistance development pathways against rilpivirine (“RPV”), efavirenz (“EFV”), and nevirapine (“NVP”), containing both single and double mutations within HIV-1 reverse transcriptase was employed. Further details and background can be found in Janssen et al. J. Med. Chem, 2005, 48, 1901-1909; Das et al., Proc. Nat. Acad. Sci., 2008, vol., 105, no. 5, 1466-1471; and Kuroda et al., Nature Chemistry, 2013, DOI: 10.1038/NCHEM. 1559. […] HIV-1 recombinant strains encoding reverse transcriptase mutations K103N, Y181C, Y188L, G190A, K103N/Y181C, L1001/Y181C, E138K or E138KIM 184V were constructed by site-directed mutagenesis. Wild-type and mutant viruses were prepared by transfecting infectious proviral HXB2-based cDNA clones into MT-2 cells and harvesting the cell supernatants. MT-2 cells were infected with wild-type and mutant HIV-1 strains at a multiplicity of infection (MOI) of 0.005 by gentle mixing for 3 hours at 37° C. and then added at a density of 16,667 cells per well in 50 μL complete RPMI cell culture media (containing 10% fetal bovine serum (FBS) and 10% penicillin-streptomycin) to 96-well plates containing 50 μL of a 3-fold serial dilution of test compounds in RPMI medium. After 5 days of incubation at 37° C. in a humidified incubator in the presence of 5% CO2. 100 μL of Cell Titer-Glo™ Reagent (Promega Biosciences, Inc., Madison, Wis.) was added to each well and the relative light units (RLU) measured on an Envision plate reader. […] The EC50 value was defined as the compound concentration inducing a 50% decrease in virus replication. […]
[formula] where y=virus inhibition, x=drug concentration, M=maximum inhibition, H=minimum inhibition and n=Hill coefficient, EC50 values (mean±standard deviation) were calculated from at least three independent experiments performed in triplicate. The level of resistance was calculated as a ratio of the mean EC50 for each mutant/WT virus. […]

hERG channels = molecular target: T1, hERG channels (Homo sapiens, UniProt Q12809); assay: hERG assay, whole cell recordings in CHO cell line stably expressing hERG channels; settings: CHO cells, whole cell patch clamp; greater than values indicate the maximum achievable concentration in the assay
T1 construct: host or cells: CHO cell line stably expressing hERG
Experimental: AVIVA's CHO cell line, which stably expresses hERG channels, was used for the study. Cells were cultured in DMEM/F12 containing 10% FBS, 1% penicillin/streptomycin and 500 μg/ml G418. Before testing, cells were harvested using Accumax (Innovative Cell Technologies).
External Solution: 2 mM CaCl2; 2 mM MgCl2; 4 mM KCl; 150 mM NaCl; 10 mM Glucose; 10 mM HEPES; 305-315 mOsm; pH 7.4 (adjusted with 5M NaOH.)
Internal Solution: 140 mM KCl; 10 mM MgCl2; 6 mM EGTA; 5 mM HEPES-Na; 5 mM ATP-Mg; 295-305 mOsm; pH 7.25 (adjusted with 1M KOH).
Whole cell recordings were performed using PX 7000A (Axon Instruments) with AVIVA's SealChip™ technology. Cells were voltage clamped at a holding potential of −80 mV. The hERG current was then activated by a depolarizing step to −50 mV for 300 ms. This first step at −50 mV was used as a baseline for measuring peak amplitude of the tail current. Next, a voltage step to +20 mV was applied for 5 s to activate the channels. Finally, a step back to −50 mV for 5 s removed activation and the deactivating tail current was recorded.
All test articles were prepared from 10 mM DMSO stock solutions. Solutions were mixed by sonication for 20 min, followed by vigorous vortexing. Prior to testing, compounds were diluted to test concentrations in glass vials using External Solution. Dilutions were prepared no longer than 20 min prior to use.
After achieving whole cell configuration, cells were monitored for 90 s to assess stability and then washed with External Solution for 66 s. The voltage protocol was then applied to the cells every 12 s throughout the procedure. Only stable cells with recording parameters above threshold were allowed to enter the drug addition procedure.
External solution containing 0.1% DMSO (vehicle) was applied to the cells to establish a baseline. After allowing the current to stabilize for 3 to 10 min, test articles were applied. Test article solutions were added to cells in 4 separate additions. Cells were kept in test solution until effect of the test article reached steady state, to a maximum of 12 min. Next, 1 μM cisapride (positive control) was added. Finally, washout with External Solution was performed until the recovery current reached steady state.
Data analysis was performed using DataXpress (Axon Instruments), Clampfit (Axon Instruments) and Origin (OriginLab Corporation) software. The greater than values in Table 5 indicate the maximum achievable concentration in the assay (e.g., compounds achieving their solubility limit).

[10] = Human immunodeficiency virus 1, MT4, 120 h, MT-4 cells, 5 days, cytopathic effect, Cell TiterGlo, read-out: MT4 EC50 (nM) against w.t.
[11] = Human immunodeficiency virus 1, MT4, read-out: MT4 EC50 (nM) against w.t. assay 2

T1 sequence (Q12809 whole entry): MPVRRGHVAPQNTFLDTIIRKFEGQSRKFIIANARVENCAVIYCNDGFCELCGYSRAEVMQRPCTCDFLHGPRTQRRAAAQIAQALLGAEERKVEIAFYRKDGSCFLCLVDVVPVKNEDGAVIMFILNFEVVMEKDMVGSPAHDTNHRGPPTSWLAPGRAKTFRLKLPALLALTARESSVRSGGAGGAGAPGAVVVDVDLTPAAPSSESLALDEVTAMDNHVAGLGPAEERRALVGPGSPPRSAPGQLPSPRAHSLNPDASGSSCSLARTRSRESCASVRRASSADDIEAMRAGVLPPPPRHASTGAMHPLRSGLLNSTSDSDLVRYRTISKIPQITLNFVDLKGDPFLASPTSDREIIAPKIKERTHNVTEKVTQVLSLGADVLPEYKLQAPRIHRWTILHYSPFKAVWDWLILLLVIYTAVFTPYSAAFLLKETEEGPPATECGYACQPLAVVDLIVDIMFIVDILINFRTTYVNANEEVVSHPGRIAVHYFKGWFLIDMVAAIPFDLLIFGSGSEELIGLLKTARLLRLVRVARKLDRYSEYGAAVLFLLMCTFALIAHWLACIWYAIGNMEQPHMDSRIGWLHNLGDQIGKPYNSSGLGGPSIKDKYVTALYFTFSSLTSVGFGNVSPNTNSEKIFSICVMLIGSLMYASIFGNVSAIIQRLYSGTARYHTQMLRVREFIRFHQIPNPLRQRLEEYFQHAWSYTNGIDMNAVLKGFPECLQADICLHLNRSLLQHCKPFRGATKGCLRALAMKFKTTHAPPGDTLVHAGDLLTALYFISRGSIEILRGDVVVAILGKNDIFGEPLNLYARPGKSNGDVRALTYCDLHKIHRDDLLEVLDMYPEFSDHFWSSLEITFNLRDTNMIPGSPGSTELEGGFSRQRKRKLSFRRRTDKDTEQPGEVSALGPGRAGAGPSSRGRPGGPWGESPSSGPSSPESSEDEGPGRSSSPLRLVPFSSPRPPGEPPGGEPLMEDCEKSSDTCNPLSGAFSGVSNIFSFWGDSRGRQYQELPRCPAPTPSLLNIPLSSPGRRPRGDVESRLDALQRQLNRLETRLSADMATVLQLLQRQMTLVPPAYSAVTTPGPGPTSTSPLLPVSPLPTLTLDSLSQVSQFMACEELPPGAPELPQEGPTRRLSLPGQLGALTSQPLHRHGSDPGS

Row | Compound | Biology resistance panel-low throughput fold change (FC) Y181C [1] | Biology resistance panel-low throughput fold change (FC) K103N/Y181C [2] | EC50 (HIV-1 HBX2 (wild type); [10]) | EC50 (HIV-1 HBX2 (wild type); [11]) | EC50 [3] | FC against mutant K103N [3] | Biology resistance panel-low throughput fold change (FC) G190A [4] | Biology resistance panel-low throughput fold change (FC) Y188L [5] | Biology resistance panel-low throughput fold change (FC) L100I/Y181C [6] | Biology resistance panel-low throughput fold change (FC) K103N [7] | EC50 [8] | FC against mutant Y181C [8] | Biology resistance panel-low throughput fold change (FC) E138K/M184V [9] | hERG (hERG channels)
1 | Cc1cc(/C=C/C#N)cc(C)c1-c1cccc2cnc(Nc3ccc(C#N)cc3)nc12 [Compound 1, (E)-4-((8-(4-(2-Cyanovinyl)-2,6-dimethylphenyl)quinazolin-2-yl)amino)benzonitrile] | 5.7 | 14.8 | 3 nM | 6.2 nM | 8.8 nM | 1.4 | 0.6 | 15.2 | 6.9 | 1.3 | 17.8 nM | 2.9 | – | –
2 | Cc1cc(/C=C/C#N)cc(C)c1-c1cccc2c(=O)[nH]c(Nc3ccc(C#N)cn3)nc12 [Compound 34, (E)-6-((8-(4-(2-Cyanovinyl)-2,6-dimethylphenyl)-4-oxo-3,4-dihydroquinazolin-2-yl)amino)nicotinonitrile] | 3.4 | 12.4 | 2.4 nM | 3 nM | 3.2 nM | 1.0 | – | 18.7 | 1.7 | 1.4 | 11.3 nM | 3.7 | 4.2 | >3 µM
3 | Cc1ccnc2c1NC(=O)c1cccnc1N2C1CC1 [Nevirapine, reference compound] | >229 | – | 65 nM | – | – | – | 183.0 | >229 | >229 | 87.0 | – | – | – | –
4 | O=C1Nc2ccc(Cl)cc2[C@@](C#CC2CC2)(C(F)(F)F)O1 [Efavirenz, reference compound] | 3.6 | 83.5 | 1.3 nM | 1.6 nM | 46.4 nM | 28.9 | 14.8 | 132.5 | >200 | 48.1 | 3.8 nM | 2.3 | – | –
5 | Cc1cc(/C=C/C#N)cc(C)c1-c1cccc2c(N)nc(Nc3ccc(C#N)nc3)nc12 [Compound 9, (E)-5-((4-Amino-8-(4-(2-cyanovinyl)-2,6-dimethylphenyl)quinazolin-2-yl)amino)picolinonitrile] | 5.7 | 14.7 | 3.4 nM | 3.2 nM | 3.5 nM | 1.1 | – | 11.4 | 4.0 | 1.0 | 10.8 nM | 3.4 | – | >3 µM
6 | Cc1cc(/C=C/C#N)cc(C)c1-c1cccc2c(N)nc(Nc3ccc(C#N)cn3)nc12 [Compound 10, (E)-6-((4-Amino-8-(4-(2-cyanovinyl)-2,6-dimethylphenyl)quinazolin-2-yl)amino)nicotinonitrile] | 11.9 | 19.9 | 2.8 nM | 3 nM | 2.9 nM | 1.0 | – | 53.6 | 3.8 | 0.9 | 29.3 nM | 9.8 | – | >3 µM
